US11028061B2, “Modulators of myocyte lipid accumulation and insulin resistance and methods of use thereof” (Sanford Burnham Prebys Medical Discovery Institute, priority 2015, dated 2021)

test system: primary murine skeletal myocytes; assay: TAG accumulation in primary murine skeletal myocytes; type: cell-based; settings: Mus musculus, read-out: Activity Score (IC50), triacylglyceride (TAG) accumulation

| SMILES | IC50 [nM] |
| --- | --- |
| COc1ccc(-c2csc(C(=O)Nc3ccc(OCC(=O)N4CCOCC4)c(OC)c3)n2)cc1 [Cpd. 91, N-(3-methoxy-4-(2-morpholino-2-oxoethoxy)phenyl)-4-(4-methoxyphenyl)thiazole-2-carboxamide] | > 10000 |
| COc1ccc(-c2csc(NC(=O)c3ccc(OCC(=O)N4CCC(=O)CC4)c(OC)c3)n2)cc1 [Cpd. 12, 3-methoxy-N-(4-(4-methoxyphenyl)thiazol-2-yl)-4-(2-oxo-2-(4-oxopiperidin-1-yl)ethoxy)benzamide] | 1000 to 10000 |

same assay, conditions: Mus musculus; primary murine skeletal myocytes; read-out: Activity Score (IC50), triacylglyceride (TAG) accumulation

| SMILES | IC50 [nM] |
| --- | --- |
| CNC(=O)CNc1ccc(C(=O)Nc2nc(-c3ccc(OC)cc3)cs2)cc1 [compound 67, N-(4-(4-methoxyphenyl)thiazol-2-yl)-4-((2-(methylamino)-2-oxoethyl)amino)benzamide] | < 1000 |
| COc1ccc(-c2csc(NC(=O)c3ccc(OCC(N)=O)c(OC)c3)n2)cc1 [Cpd. 17, 4-(2-amino-2-oxoethoxy)-3-methoxy-N-(4-(4-methoxyphenyl)thiazol-2-yl)benzamide] | 1000 to 10000 |
| COc1ccc(-c2csc(NC(=O)c3ccc(OCC(=O)N(C)C)c(OC)c3)n2)cc1 [Cpd. 19, 4-(2-(dimethylamino)-2-oxoethoxy)-3-methoxy-N-(4-(4-methoxyphenyl)thiazol-2-yl)benzamide] | 1000 to 10000 |
| COc1ccc(-c2csc(NC(=O)c3ccc(OCC(=O)N4CCSCC4)c(OC)c3)n2)cc1 [Cpd. 11, 3-methoxy-N-(4-(4-methoxyphenyl)thiazol-2-yl)-4-(2-oxo-2-thiomorpholinoethoxy)benzamide] | < 1000 |
| COc1ccc(-c2csc(NC(=O)c3ccc(OCC(=O)N4CCOCC4)cc3)n2)cc1 [Cpd. 41, N-(4-(4-methoxyphenyl)thiazol-2-yl)-4-(2-morpholino-2-oxoethoxy)benzamide] | < 1000 |
| Cc1ccccc1-c1csc(NC(=O)c2ccc(OCC(=O)N3CCOCC3)cc2)n1 [Cpd. 47, 4-(2-morpholino-2-oxoethoxy)-N-(4-(o-tolyl)thiazol-2-yl)benzamide] | < 1000 |
| COc1ccc(-c2csc(NC(=O)c3ccc(OCC(=O)NCc4ccccn4)c(OC)c3)n2)cc1 [Cpd. 24, 3-methoxy-N-(4-(4-methoxyphenyl)thiazol-2-yl)-4-(2-oxo-2-((pyridin-2-ylmethyl)amino)ethoxy) Benzamide] | > 10000 |
| O=C(Nc1nc2ccccc2s1)c1ccc(OCC(=O)N2CCOCC2)cc1 [Cpd. 87, N-(benzo[d]thiazol-2-yl)-4-(2-morpholino-2-oxoethoxy)benzamide] | > 10000 |
| CCOc1ccc(-c2csc(NC(=O)c3ccc(OCC(=O)N4CCOCC4)c(OC)c3)n2)cc1 [Cpd. 28, N-(4-(4-ethoxyphenyl)thiazol-2-yl)-3-methoxy-4-(2-morpholino-2-oxoethoxy)benzamide] | < 1000 |
| COc1ccc(-c2csc(NC(=O)c3ccc(OCC(=O)NC4CCC4)c(OC)c3)n2)cc1 [Cpd. 22, 4-(2-(cyclobutylamino)-2-oxoethoxy)-3-methoxy-N-(4-(4-methoxyphenyl)thiazol-2-yl)benzamide] | < 1000 |
| CNC(=O)COc1ccc(C(=O)Nc2nc(-c3ccc(OC)cc3Cl)cs2)cc1 [Cpd. 58, N-(4-(2-chloro-4-methoxyphenyl)thiazol-2-yl)-4-(2-(methylamino)-2-oxoethoxy)benzamide] | < 1000 |
| COc1cc(C(=O)Nc2nc(-c3ccc(C)cc3)cs2)ccc1OCC(=O)N1CCOCC1 [Cpd. 30, 3-methoxy-4-(2-morpholino-2-oxoethoxy)-N-(4-(p-tolyl)thiazol-2-yl)benzamide] | < 1000 |
| COc1cc(C(=O)Nc2nc(-c3ccc(C)cc3)cs2)ccc1O [Cpd. 3, 4-hydroxy-3-methoxy-N-(4-(p-tolyl)thiazol-2-yl)benzamide] | > 10000 |
| COc1ccc(-c2csc(NC(=O)c3ccc(OCC(=O)N4CCOCC4)nc3)n2)cc1 [Cpd. 93, N-(4-(4-methoxyphenyl)thiazol-2-yl)-6-(2-morpholino-2-oxoethoxy)nicotinamide] | > 10000 |
| COc1ccc(Cc2cnc(NC(=O)c3ccc(OCC(=O)N4CCOCC4)c(OC)c3)s2)cc1 [Cpd. 98, 3-methoxy-N-(5-(4-methoxybenzyl)thiazol-2-yl)-4-(2-morpholino-2-oxoethoxy)benzamide] | 1000 to 10000 |
| COc1ccc(-c2csc(NC(=O)c3ccc(OCC(=O)NCCN4CCCCC4)c(OC)c3)n2)cc1 [Cpd. 14, 3-methoxy-N-(4-(4-methoxyphenyl)thiazol-2-yl)-4-(2-oxo-2-((2-(piperidin-1-yl)ethyl)amino)ethoxy)benzamide] | 1000 to 10000 |
| CC(C)Oc1ccc(-c2csc(NC(=O)c3ccc(OCC(=O)N4CCOCC4)cc3)n2)c(Cl)c1 [Cpd. 55, N-(4-(2-chloro-4-isopropoxyphenyl)thiazol-2-yl)-4-(2-morpholino-2-oxoethoxy)benzamide] | < 1000 |
| O=C(Nc1nc(-c2cccc(Cl)c2)cs1)c1ccc(OCC(=O)N2CCOCC2)cc1 [Cpd. 52, N-(4-(3-chlorophenyl)thiazol-2-yl)-4-(2-morpholino-2-oxoethoxy)benzamide] | < 1000 |
| COc1ccc(-c2csc(NCc3ccc(OCC(=O)N4CCOCC4)c(OC)c3)n2)cc1 [Cpd. 89, 2-(2-methoxy-4-(((4-(4-methoxyphenyl)thiazol-2-yl)amino)methyl)phenoxy)-1-morpholinoethan-1-one] | 1000 to 10000 |
| COc1cc(C(=O)Nc2nc(-c3ccc(Cl)cc3)cs2)ccc1O [Cpd. 4, N-(4-(4-chlorophenyl)thiazol-2-yl)-4-hydroxy-3-methoxybenzamide] | 1000 to 10000 |
| COCCNC(=O)COc1ccc(C(=O)Nc2nc(-c3ccc(OC)cc3)cs2)cc1OC [Cpd. 20, 3-methoxy-4-(2-((2-methoxyethyl)amino)-2-oxoethoxy)-N-(4-(4-methoxyphenyl)thiazol-2-yl)benzamide] | 1000 to 10000 |
| COc1ccc(-c2csc(NC(=O)c3ccc(OCC(N)=O)cc3)n2)c(Cl)c1 [Cpd. 57, 4-(2-amino-2-oxoethoxy)-N-(4-(2-chloro-4-methoxyphenyl)thiazol-2-yl)benzamide] | 1000 to 10000 |
| COc1cc(C(=O)Nc2nc(-c3ccccc3)c(Cc3ccccc3)s2)ccc1OCC(=O)N1CCOCC1 [Cpd. 84, N-(5-benzyl-4-phenylthiazol-2-yl)-3-methoxy-4-(2-morpholino-2-oxoethoxy)benzamide] | < 1000 |
| COc1cc(C(=O)Nc2nc(-c3ccc(Cl)c(Cl)c3)cs2)ccc1OCC(=O)N1CCOCC1 [Cpd. 37, N-(4-(3,4-dichlorophenyl)thiazol-2-yl)-3-methoxy-4-(2-morpholino-2-oxoethoxy)benzamide] | < 1000 |
| COc1ccc(-c2csc(NC(=O)c3ccc(OCC(=O)N4CCOCC4)cc3)n2)c(Cl)c1 [Cpd. 54, N-(4-(2-chloro-4-methoxyphenyl)thiazol-2-yl)-4-(2-morpholino-2-oxoethoxy)benzamide] | < 1000 |
| CCN(CCN(C)C)C(=O)COc1ccc(C(=O)Nc2nc(-c3ccc(OC)cc3)cs2)cc1OC [Cpd. 15, 4-(2-((2-(dimethylamino)ethyl)(ethyl)amino)-2-oxoethoxy)-3-methoxy-N-(4-(4-methoxyphenyl)thiazol-2-yl)benzamide] | > 10000 |
| COc1ccc(-c2csc(NC(=O)c3ccc(OCC(=O)NCc4ccccc4)c(OC)c3)n2)cc1 [Cpd. 23, 4-(2-(benzylamino)-2-oxoethoxy)-3-methoxy-N-(4-(4-methoxyphenyl)thiazol-2-yl)benzamide] | 1000 to 10000 |
